For assay [1], the target named is T1, human thyroid receptor alpha ligand-binding domain (LBD) (Homo sapiens, UniProt P10827).
T1 construct: purchased Invitrogen
The assay is described as follows: TR-FRET thyroid receptor alpha coactivator assay (THR biochemical assay, Assay 1). The note with it: for EC50: Table 4, THR-alpha, read-out: Activity category Assay 1 (EC50, THR-alpha agonist activity); for Emax: Table 5, THRα, read-out: Activity category Assay 1 THRα (Emax). From the text: (§1) The TR-FRET thyroid receptor beta coactivator assay was used with slight, optimized modifications of the manufacturer's protocol (Invitrogen). The assay uses a terbium-labeled anti-GST antibody, a glutathione-S-transferase (GST) tagged human thyroid receptor, beta or alpha, ligand-binding domain (LBD), and a fluorescein labeled SRC2-2 coactivator peptide. […] The energy transfer is detected as an increase in the fluorescence emission of the fluorescein acceptor, and a decrease in the fluorescence emission of the terbium donor. The assay is performed in a 384-well black plate in a final volume of 20 μL. Serial dilution of various test agonists was performed in DMSO (1% final DMSO concentration) and added to the test plate. Thyroid receptor beta LBD is added to the plate at a final concentration of 1 nM, followed by the mixture of the fluorescein labeled SRC2-2 coactivator peptide, and the terbium-labeled anti-GST antibody at final concentrations of 200 nM and 2 nM respectively. The assay is incubated for 1 hr at rt protected from light.
(In TR-FRET formats the signal depends on donor and acceptor labels being close together.)

For assay [2], the target named is T2, human thyroid receptor beta ligand-binding domain (LBD) (Homo sapiens, UniProt P10828).
T2 construct: purchased Invitrogen
T2 sequence (P10828 217-461 limits assumed): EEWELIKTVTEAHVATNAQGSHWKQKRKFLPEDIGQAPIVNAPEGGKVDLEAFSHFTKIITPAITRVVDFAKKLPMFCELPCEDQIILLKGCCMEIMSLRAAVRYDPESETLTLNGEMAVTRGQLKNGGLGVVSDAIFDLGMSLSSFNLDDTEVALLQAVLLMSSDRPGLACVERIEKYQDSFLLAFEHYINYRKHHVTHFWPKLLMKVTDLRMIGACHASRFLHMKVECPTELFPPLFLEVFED
The assay is described as follows: TR-FRET thyroid receptor beta coactivator assay (THR biochemical assay, Assay 1). The note with it: for EC50: THR-beta, TR-FRET coactivator assay, read-out: Activity category Assay 1 (EC50, THR-beta agonist); for Emax: Table 5, Assay 1, THRβ, read-out: Activity category Assay 1 THRβ (Emax).
Text: as §1

Molecules are shown by their SMILES. Where only a bound is given, the exact number is not on record here.

T1 sequence (P10827 163-410 isoform P10827-2 limits assumed, other chains not shown): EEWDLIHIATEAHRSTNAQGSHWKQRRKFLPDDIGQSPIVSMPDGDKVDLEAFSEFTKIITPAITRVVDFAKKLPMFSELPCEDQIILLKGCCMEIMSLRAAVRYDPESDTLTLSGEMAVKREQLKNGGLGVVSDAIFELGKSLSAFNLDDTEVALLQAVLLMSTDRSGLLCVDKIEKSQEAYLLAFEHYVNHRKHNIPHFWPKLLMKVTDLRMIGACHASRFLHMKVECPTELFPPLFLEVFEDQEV

In general, EC50 refers to the concentration giving half of the maximal effect. What is called Emax is the greatest response seen or fitted, relative to the assay's reference. On to `Nc1nn(-c2cc(Cl)c(Oc3n[nH]c(=O)cc3-c3ccn4cncc4c3)c(Cl)c2)c(=O)[nH]c1=O` [Compound 127], for which, in assay [1], the EC50 is more than 25 µM and the maximal effect (Emax) was less than 50%. In assay [2], the half-maximal effective concentration (EC50) was more than 25 µM and the Emax was less than 50%.
With `Nc1nn(-c2cc(Cl)c(Oc3cc(-c4cc5ccccn5n4)c(=O)[nH]n3)c(Cl)c2)c(=O)[nH]c1=O` [Compound 130], in assay [1], the EC50 lay within 1 to 25 µM and the Emax is less than 50%. For the same compound, in assay [2], the EC50 was more than 25 µM and the Emax is less than 50%.
Regarding `Nc1nn(-c2cc(Cl)c(Oc3n[nH]c(=O)cc3-c3cc4ccccn4n3)c(Cl)c2)c(=O)[nH]c1=O` [Compound 131], in assay [1], the EC50 is 1 to 25 µM and the Emax was less than 50%. In assay [2], the concentration for a half-maximal effect (EC50) was in the range of 1 to 25 µM and the Emax was less than 50%.
As for `Nc1nn(-c2cc(Cl)c(Oc3cc(-c4cnc5ccccc5c4)c(=O)[nH]n3)c(Cl)c2)c(=O)[nH]c1=O` [Compound 132], in assay [1], the EC50 was more than 25 µM and the Emax is less than 50%. In assay [2], the EC50 is more than 25 µM and the Emax was less than 50%.
For `Nc1nn(-c2cc(Cl)c(Oc3n[nH]c(=O)cc3-c3cnc4ccccc4c3)c(Cl)c2)c(=O)[nH]c1=O` [Compound 133], in assay [1], the EC50 was more than 25 µM and the Emax is less than 50%. In addition, in assay [2], the EC50 is 0.25 to 1 µM and the maximal response (Emax) is less than 50%.
Take `O=c1cnn(-c2cc(Cl)c(Oc3cc(-c4ccc5sccc5c4)c(=O)[nH]n3)c(Cl)c2)c(=O)[nH]1` [Compound 135]: in assay [1], the 50% effective concentration (EC50) is more than 25 µM and the maximum response (Emax) is less than 50%. Moreover, in assay [2], the EC50 is more than 25 µM and the Emax is less than 50%.
With `O=c1cc(-c2ccc3sccc3c2)c(Oc2c(Cl)cc(-n3ncc(=O)[nH]c3=O)cc2Cl)n[nH]1` [Compound 136], in assay [1], the half-maximal effective concentration (EC50) lay within 1 to 25 µM and the Emax was less than 50%. For the same compound, in assay [2], the EC50 was in the range of 1 to 25 µM and the maximal effect (Emax) is less than 50%.
Take `Cc1cncc(-c2cc(Oc3c(Cl)cc(-n4ncc(=O)[nH]c4=O)cc3Cl)n[nH]c2=O)c1` [Compound 137]: in assay [1], the EC50 was more than 25 µM and the maximal response (Emax) is less than 50%. Also, in assay [2], the EC50 lay in the range of 1 to 25 µM and the maximum response (Emax) is less than 50%.
On to `Cc1cncc(-c2cc(=O)[nH]nc2Oc2c(Cl)cc(-n3ncc(=O)[nH]c3=O)cc2Cl)c1` [Compound 138], for which, in assay [1], the 50% effective concentration (EC50) was more than 25 µM and the Emax was less than 50%. In addition, in assay [2], the EC50 is more than 25 µM and the maximal response (Emax) was less than 50%.
For the compound `Cc1cccc(-c2cc(=O)[nH]nc2Oc2c(Cl)cc(-n3ncc(=O)[nH]c3=O)cc2Cl)c1` [Compound 140], in assay [1], the concentration giving a half-maximal response (EC50) is more than 25 µM and the Emax was less than 50%. Moreover, in assay [2], the EC50 is more than 25 µM and the Emax is less than 50%.
On to `Cc1cc(-c2cc(Oc3c(Cl)cc(-n4ncc(=O)[nH]c4=O)cc3Cl)n[nH]c2=O)ccn1` [Compound 141], for which, in assay [1], the EC50 is more than 25 µM and the Emax is less than 50%. Moreover, in assay [2], the 50% effective concentration (EC50) fell in the range of 1 to 25 µM and the Emax is less than 50%.
`Cc1cc(-c2cc(=O)[nH]nc2Oc2c(Cl)cc(-n3ncc(=O)[nH]c3=O)cc2Cl)ccn1` [Compound 142]: the EC50 in assay [1] and in assay [2] was more than 25 µM throughout. The maximal effect (Emax) in assay [1] and in assay [2] was less than 50% each time.
Turning to `Cc1cc(-n2nc(C#N)c(=O)[nH]c2=O)cc(C)c1Cc1ccc2c(c1)C1(CCC1)C(=O)N2` [Compound 153, 2-(3,5-Dimethyl-4-((2′-oxospiro[cyclobutane-1,3′-indolin]-5′-yl)methyl)phenyl)-3,5-dioxo-2,3,4,5-tetrahydro-1,2,4-triazine-6-carbonitrile], in assay [1], the EC50 is less than 0.05 µM and the maximal effect (Emax) is less than 50%. Further, in assay [2], the EC50 was less than 0.05 µM and the Emax was less than 50%.
In the case of `Cc1cc(-c2nn(C)c(=O)[nH]c2=O)cc(C)c1Cc1ccc2[nH]cc(C(C)C)c2n1` [Compound 162, 6-[4-[(3-isopropyl-1H-pyrrolo[3,2-b]pyridin-5-yl)methyl]-3,5-dimethyl-phenyl]-2-methyl-1,2,4-triazine-3,5-dione], in assay [1], the EC50 lay within 0.05 to 0.25 µM and the maximal response (Emax) is less than 50%. Further, in assay [2], the EC50 was less than 0.05 µM and the maximal effect (Emax) fell in the range of 50 to 75%.
For the compound `C[C@@H](c1cc(Oc2c(Cl)cc(-n3nc(N)c(=O)[nH]c3=O)cc2Cl)n[nH]c1=O)C1CCC1` [Compound 167], the values for the EC50 in assay [1] and in assay [2] were 1 to 25 µM and 0.05 to 0.25 µM, respectively. For the same compound, the Emax in assay [1] and in assay [2] was less than 50% in each case.
Regarding `C[C@H](c1cc(Oc2c(Cl)cc(-n3nc(N)c(=O)[nH]c3=O)cc2Cl)n[nH]c1=O)C1CCC1` [Compound 168], in assay [1], the 50% effective concentration (EC50) is 0.05 to 0.25 µM and the Emax lay within 50 to 75%. For the same compound, in assay [2], the EC50 is less than 0.05 µM and the Emax is less than 50%.
The matching figures for `CC(C)[C@@H](C)c1cc(Oc2c(Cl)cc(-n3nc(N)c(=O)[nH]c3=O)cc2Cl)n[nH]c1=O` [Compound 169]: 0.25 to 1 µM, less than 50%, less than 0.05 µM and less than 50%.
The matching figures for `CC(C)[C@H](C)c1cc(Oc2c(Cl)cc(-n3nc(N)c(=O)[nH]c3=O)cc2Cl)n[nH]c1=O` [Compound 170]: more than 25 µM, less than 50%, 0.05 to 0.25 µM and less than 50%.

The values are drawn from patent US12180192B2, “Modulators of THR-β and methods of use thereof” (ALIGOS THERAPEUTICS, INC., priority 2019, dated 2024).
